pIC50: −log10 of the molar value.
How the values were obtained:
[1] = tested on: more than 50 diverse human tumor cell lines; assay: Anti-proliferative effect in tumor cell lines; assay type: cell-based
MDA-MB-361 = assay: Apoptosis induction; assay type: cell-based; conditions: at 4 h, cleaved PARP
[2] = tested on: lung, breast cancer and ovarian cancer cell lines; assay: In vitro cytotoxic activity and combinations, cell line panel; assay type: cell-based, human; conditions: agent alone
Experimental: Cells were plated in a 96-well clear-bottomed plates (Corning) and treated with varying concentrations of compounds for 4 days. […] by using a CellTiter Glo luminescent cell viability assay kit (Promega) and measured using a Victor X3 plate reader (Perkin Elmer). The data were normalised to the control group (empty vector or DMSO). The IC50 values were defined as the concentration that causes 50% growth inhibition. IC50 values were calculated using a logistic nonlinear regression, model no. 203 with XL fit v4.2 (IDBS, Guldford, Surry, UK). All experimental points were setup in three replicate wells and independently performed in duplicate.
The effects of drug combinations were evaluated using Chou-Talalay median effect analysis (28). Cells were treated with each drug alone and in combination in two independent 96-well plates in a diagonal matrix format, and proliferation was measured by using a CellTiter Glo kit (Promega). Results were expressed as surviving fractions (fraction affected, Fa), based on the measured luminescence counts of treated samples, compared to that of untreated controls. […]
In vitro cytotoxic activity was evaluated for the 5T4-ADC or the auristatin payloads in combination with various standard of care (SOC) agents or selected signaling inhibitors in lung, breast cancer and ovarian cancer cell lines. […]

[3] = tested on: subcutaneous MDA-468 tumors; assay: Xenograft efficacy; assay type: in vivo, mouse; conditions: 5T4-ADC 2 mg/kg
Experimental: Female athymic nu/nu mice (18-23 g) were obtained from Charles River Laboratories, Wilmington, Mass. […] ADCs were administered based on mAb protein content at 2 or 3 mg Ab/kg on a Q4D×4 (every 4 day) schedule, with 8 to 10 mice per group. […] All procedures using mice were approved by the Pfizer Institutional Animal Care and Use Committee according to established guidelines. Time To Endpoint (time to no tumor or rate of tumor tripling) were used for comparison of drug-treated groups.

[4] = tested on: human cancer cell lines with PI3K pathway aberrations; assay: Mouse xenograft models
[5] = tested on: panel of 81 protein kinases and Class III PI3K family hVps34; assay: Kinase screening services (Dundee University and Invitrogen); assay type: biochemical; conditions: 81 protein kinases and hVps34
[6] = rat
in vitro = conditions: rat, plasma

## CN(C)C1CCN(C(=O)c2ccc(NC(=O)Nc3ccc(-c4nc(N5CCOCC5)nc(N5CCOCC5)n4)cc3)cc2)CC1 [PF-384, 1-(4-{[4-(dimethylamino)piperidin-1-yl]carbonyl}phenyl)-3-[4-(4,6-dimorpholin-4-yl-1,3,5-triazin-2-yl)phenyl]urea]
[1]
  pIC50: > 7.00
MDA-MB-361
  concentration at which apoptosis was induced: 30 nM

## O=C(NOC[C@H](O)CO)c1ccc(F)c(F)c1Nc1ccc(I)cc1F [PD-901]
[2]
  sensitivity of most of the cell lines to the single agent: relatively insensitive

## CC(=O)O[C@H]1C(=O)[C@@]2(C)[C@H]([C@H](OC(=O)c3ccccc3)[C@]3(O)C[C@H](OC(=O)[C@H](O)[C@@H](NC(=O)c4ccccc4)c4ccccc4)C(C)=C1C3(C)C)[C@]1(OC(C)=O)CO[C@@H]1C[C@@H]2O [paclitaxel]
[3]; paclitaxel 22.5 mg/kg
  regressions / CRs by day 53: 6/10
[3]; paclitaxel 10 mg/kg
  antitumor activity of monotherapy: no pronounced effect on tumor growth

## C#Cc1cccc(Nc2ncnc3cc(OCCOC)c(OCCOC)cc23)c1 [Erlotinib]
[2]
  sensitivity of most of the cell lines to the single agent: relatively insensitive

## COc1ccc(-c2cc3c(C)nc(N)nc3n([C@H]3CC[C@H](OCCO)CC3)c2=O)cn1 [Compound 1A, 2-amino-8-[trans-4-(2-hydroxyethoxy)cyclohexyl]-6-(6-methoxypyridin-3-yl)-4-methylpyrido[2,3-d]pyrimidin-7(8H)-one]
[4]
  in vivo activity: has in vivo activity
[5]
  concentration up to which no significant inhibitory activity was observed for any of the evaluated kinases: > 10 µM
[6]
  clearance: low clearance
In vitro
  fraction unbound: 0.202
